Results from US20180340947A1, “INVOLVEMENT OF THE BUFO[…] THE DIAGNOSIS AND TREATMENT OF POST-TRAUMATIC STRESS DISORDER (PTSD)” (priority 2017, published 2018).

Key:
blood/brain barrier = settings: including disruption of the blood/brain barrier; cited from earlier work
[1] = in vitro; cited from earlier work
[2] = test system: traumatic brain injured animals; experiment: Urinary MBG excretion in sham and traumatic brain injured animals; assay type: in vivo
Description: There are estimated to be between 300,000 to 350,000 veterans of the Middle East conflicts who currently suffer from PTSD related to wartime service. However, there are no proven methods to diagnose and stage the results of both physical and psychological trauma leading to PTSD, nor are there successful preventative or treatment methods. The interest in these military-associated problems has been accelerated by their potential application also to concussion in civilian life, especially to amateur, collegiate, and professional sports. Thus far, no solution has been enunciated nor has been proven (Meier and Ivory, Jul. 3, 2015, The New York Times). […] 114. […] It has been determined that a circulating cardiac glycoside (or “cardiotonic steroid”) called marinobufagenin (MBG) (FIG. 1), acts as both an indicator and initiator of the inflammatory process involved in TBI (FIG. 1) (Shapiro et al., The American Society for Clinical Pharmacology and Therapeutics, Dallas, Tex., Mar. 2-5, 2011. ASCPT Annual Meeting Program Booklet, p. 78; Puschett et al., Medical Research Archives 2015, ISSN 2375-1924; Oliver et al., J Experimental Neuroscience 2015, 9:67-72). […]

[3] = test system: GFAP-labeled astrocytes in cortex after impact acceleration injury; experiment: GFAP immuno-fluorescence of brain after impact acceleration injury (IAI); assay type: in vivo; settings: RBG at 1 hour after IAI
Procedure: FIGS. 2A-2C. Micrographs of GFAP (glial fibrillary acidic protein) immuno-fluorescence. GFAP antibody labels the intermediate filaments of most astrocytes in the brain. In the sham animals (FIG. 2A), a normal distribution of GFAP-labeled astrocytes is seen. At 24 hours after an impact acceleration injury (IAI; FIG. 2B), a noticeable scar is observed (arrows) in layers 2 and 3 of the cortex. There is also a patchy loss of GFAP-labeled astrocytes throughout cortex and the vasculature (arrowheads) appears damaged. The loss of GFAP immunoreactivity and the appearance of astrocyte hypertrophy are indicative of a neuroinflammatory response to injury. […] The RBG treatment also reduces the decrease in GFAP immunoreactivity and a greater proportion of GFAP-labeled astrocytes have a normal, rather than hypertrophied appearance.

[4] = test system: rodent brain contusion model; experiment: Rodent brain contusion model; assay type: in vivo; settings: given 1 hour after the insult
Description: MBG is elevated in other syndromes such as preeclampsia and traumatic brain injury. It has been shown that the administration of the antagonist of MBG, resibufagenin (RBG), is therapeutically effective. […] RBG antagonizes MBG activity and may be an effective treatment for hypertension, ARDS, traumatic brain injury, and preeclampsia. Certain embodiments are directed to treating a patient having elevated levels of MBG by administering an MBG antagonist or anti-MBG agent. In certain aspects the anti-MBG agent is resibufagenin (RBG).

[5] = test system: preeclampsia in animal models; settings: cited from earlier work

SMILES | Vascular leak (blood/brain barrier) | Vasoconstrictor action [1] | Urinary MBG excretion ([2]; TBI + RBG group, N = 10, sham 592.8 ± 79.3, TBI 1340.9 ± 308.5, P TBI vs. TBI + RBG = 0.02) | Antagonism of the effects of MBG ([2]; animal model of TBI (FIG. 2, Table 1)) | Glial scar ([3]; IAI+RBG animals) | Alterations after IAI (glial scar, loss of GFAP immunoreactivity, astrocyte hypertrophy) ([3]; micrographs at 24 hours after IAI) | Tissue injury [4] | Preeclampsia [5]
C[C@]12CC[C@H](O)C[C@@]1(O)CC[C@@H]1[C@@H]2CC[C@]2(C)[C@@H](c3ccc(=O)oc3)C[C@H]3O[C@]132 [MBG, marinobufagenin] | cause vascular leak | acts in vitro as a vasoconstrictor | – | – | – | – | – | –
C[C@]12CC[C@H](O)C[C@H]1CC[C@@H]1[C@@H]2CC[C@]2(C)[C@@H](c3ccc(=O)oc3)C[C@H]3O[C@]132 [RBG, resibufogenin] | – | – | 475.3 ± 56.1 | antagonizes the effects of MBG | A glial scar was not observed | most of these alterations are ameliorated | amelioration of tissue injury | prevents preeclampsia
